# Tested on: healthy donor PBMCs
# Test: IFNγ ELISpot assay with peptide-stimulated healthy donor PBMCs
# Format: cell-based, human
# Experimental: FIG. 10A-D. In vitro validation of predicted neoAgs immunogenicity using ELISpot IFNy assay. A) Schematic of peptide pool, stimulation, and cell culture workflow for ELISpot assays. PBMCs were exposed with the individual peptides from the immunogenic pools in the presence of IL-7 for 3 d, followed by expansion of neoAg-specific T cells in the presence of IL-2. On day 13, expanded cells (10^5 cells per well) were plated onto 96-well ELISpot plate coated with an IFNγ antibody and re-stimulated with the respective peptide for 24 h. IFNy secreting cells were analyzed as spot-forming units (SFUs), and the inventors chose ≥15 SFU produced by peptide stimulated cells over DMSO control cells as an indicator of the peptide immunogenicity. B) Quantification of IFNγ-secreting cells (SFU) obtained from ELISpot assay of 12 neoAg-stimulated PBMCs. ConcA and DMSO served as positive and negative controls. […] C) Selection of 110 predicted MHC-I neoAgs from 3 different categories and percentage of immunogenicity in vitro validation. […] “Most Immunogenic” refers to neoAgs selected from the top 100 prediction list of Most Immunogenic MHC-I neoAgs. “Most recurrent” refers to neoAgs selected from the top 100 prediction list of Most Recurrent MHC-I neoAgs. “Others” refers neoAgs that were predicted to have low immunogenicity and no recurrency. A total of 44 MHC-II neoAgs from 2 different categories were tested. […] “Most Immunogenic” refers to neoAgs selected from the top 100 prediction list of Most Immunogenic MHC-II neoAgs. “Most recurrent” refers to neoAgs selected from the top 100 prediction list of Most Recurrent MHC-II neoAgs. D) pMHC-pentamer staining. Expanded Pan-T cells from the healthy human donor were isolated and stained with WDTC1 neoAg peptide/A*02:01 Pentameric complexes and PerCP-conjugated CD8 antibody followed by flow cytometry analysis. Pan T-cells from healthy human donor PBMC (HLA-A*02:01) were isolated using negative magnetic selection. Isolated Pan T cells were stimulated and expanded with Opto-antigen presenting beads conjugated with WDTC1 neoAg-peptide. Viable Pan-T cells were gated based on FSC and SSC scatter and SYTOX Blue dead cells staining after doublet-exclusion. Flow cytometric plots representing CD8 positive (x-axis) and PE-biotin-pMHC-pentamer positive (y-axis) cells; unstained, unstimulated, and WDTC1 Opto-antigen presenting beads stimulated cells (left to right). The percentage of live CD8+ cells and CD8/WDTC1 neoAg-loaded MHC pentamer positive cells are shown.
# FIG. 19A-B. In vitro validation of the pooled predicted neoAgs immunogenicity using ELISpot IFNγ assay. A) Schematic of peptide pool, stimulation, and cell culture workflow for ELISpot assays. All 154 peptides were grouped into 15 peptide pools to stimulate PBMCs from 3 healthy human donors as shown in the illustrations. IFNy secreting cells were analyzed as spot-forming units (SFUs), indicative of immunogenicity. B) Quantification of IFNγ-secreting cells (SFU) obtained from ELISpot assay. Pools 2, 3, 5, 6, 9, and 12 produced at least 15 or higher SFU/10^5 cells from two different PBMCs. […] ConcA and DMSO served as positive and negative controls.
# Healthy donor PBMCs were stimulated with 15 peptide pools (Supplementary Table 13) to expand the neoAg-specific CD8^+ T-cells followed by quantitative ELISpot assays (FIG. 19A) to measure immunogenicity. […] To ascertain the immunogenicity of individual peptides within each immunogenic pool. a deconvolution protocol (see Methods) was implemented (FIG. 10A). […] Three percent of MHC-I neoAgs not predicted to be highly immunogenic or recurrent (Others). 5% of the top 100 most immunogenic MHC-II predicted neoags, and 6% of the top 100 most recurrent MHC-II predicted neoags elicited an immunogenic response as assessed by ELISpot assays. Additionally. 18% of all of these elispot-reactive neoags were also predicted from the validation set (FIG. 9C). […]
# [1] = IFNγ ELISpot, peptide-stimulated healthy donor PBMCs
# [2] = IFNγ ELISpot, healthy donor PBMCs stimulated with peptide pools
# [3] = IFNγ ELISpot, peptide-stimulated healthy donor PBMCs, peptides grouped in 15 pools
# [4] = IFNγ ELISpot, only peptides marked Tested
# [5] = IFNγ secretion in healthy donor PBMCs vs unexposed control cells
# [6] = IFNγ ELISpot, peptides marked Tested
sequence,measurement,setting,value
LAYWEKREAW [compound 177],ELISPOT result (positive Yes/No) for peptides marked Tested,[1],No
LEVMLLNMGYRITGL,Elispot reactive,[2],yes
LKLCSKVSF [compound 132],ELISPOT result (positive Yes/No) for peptides marked Tested,[1],No
LLNPVTMNK [compound 204],Elispot reactive,"IFNγ ELISpot, peptide tested",No
LLNPVTMNKA,Elispot reactive,[3],yes
LLNPVTMNKA [compound 206],Elispot reactive,"IFNγ ELISpot, peptide tested",No
LSAPEKITLF [compound 20],Elispot reactive,[4],Yes
same,ELISPOT result (positive Yes/No) for peptides marked Tested,[1],Yes
same,Elispot reactive,[5],Yes
LSNVAPPAF,Elispot reactive,[3],yes
LSNVAPPAF [compound 168],ELISPOT result (positive Yes/No) for peptides marked Tested,[1],Yes
same,Elispot reactive,[5],Yes
LSSPFREQM [compound 38],Elispot reactive,[4],No
same,ELISPOT result (positive Yes/No) for peptides marked Tested,[1],No
LSSWFSPTV [compound 139],ELISPOT result (positive Yes/No) for peptides marked Tested,[1],No
LTFCTNATI [compound 200],Elispot reactive,"IFNγ ELISpot, peptide tested",No
LTHPAHQPL [compound 124],Elispot reactive,[6],No
MLLELSPAQL [compound 216],Elispot reactive,"IFNγ ELISpot, peptide tested",No
MLLRLNLRK [compound 29],Elispot reactive,[4],Yes
same,ELISPOT result (positive Yes/No) for peptides marked Tested,[1],Yes
same,Elispot reactive,[5],Yes
MPCFTTALLL [compound 155],ELISPOT result (positive Yes/No) for peptides marked Tested,[1],No
MSSIWGTMF [compound 140],ELISPOT result (positive Yes/No) for peptides marked Tested,[1],No
MYFFWPCSL [compound 174],ELISPOT result (positive Yes/No) for peptides marked Tested,[1],No
NMIQVLMSV [compound 49],ELISPOT result for peptides marked Tested with ELISPOT (Yes/No),[1],No
QKKLMLLRLNLRKMC,Elispot reactive,[3],yes
QTIEERLTW,Elispot reactive,[3],yes
QTIEERLTW [compound 156],ELISPOT result (positive Yes/No) for peptides marked Tested,[1],Yes
same,Elispot reactive,[5],Yes
RAWRAGMPL [compound 153],ELISPOT result (positive Yes/No) for peptides marked Tested,[1],No
RAWRRFPLL [compound 118],Elispot reactive,[6],No
RFCPASCSGCY,Elispot reactive,[3],yes
RFCPASCSGCY [compound 170],ELISPOT result (positive Yes/No) for peptides marked Tested,[1],No
RIPAVLRTEGEPLHT,Elispot reactive,[3],yes
RIPAVLRTEGEPLHT [compound 323],Elispot reactive,[6],Yes
same,Elispot reactive,[5],Yes
RLDKGNFAGA,Elispot reactive,[3],yes
RLDKGNFAGA [compound 215],Elispot reactive,"IFNγ ELISpot, peptide tested",No
RLSCAPPPI,Elispot reactive,[3],yes
RLSCAPPPI [compound 138],ELISPOT result (positive Yes/No) for peptides marked Tested,[1],Yes
same,Elispot reactive,[5],Yes
RLYKYDHNFV [compound 213],Elispot reactive,"IFNγ ELISpot, peptide tested",No
RLYVPLYSSK,Elispot reactive,[3],yes
RLYVPLYSSK [compound 37],Elispot reactive,[4],Yes
same,ELISPOT result (positive Yes/No) for peptides marked Tested,[1],Yes
same,Elispot reactive,[5],Yes
RMASTSCAA [compound 161],ELISPOT result (positive Yes/No) for peptides marked Tested,[1],No
RPACTCISM [compound 97],ELISPOT result (positive Yes/No) for peptides marked Tested,[1],No
same,ELISPOT positive,only neoAgs marked Tested with ELISPOT,No
RPLCSSLGPL [compound 15],Elispot reactive,"IFNγ ELISpot, peptide tested",No
RPRMRAASPL [compound 13],Elispot reactive,"IFNγ ELISpot, peptide tested",No
RPVRGRGSL [compound 14],Elispot reactive,"IFNγ ELISpot, peptide tested",No
RQMLPTLSTL [compound 214],Elispot reactive,"IFNγ ELISpot, peptide tested",No
RRPLRSWTPR [compound 152],ELISPOT result (positive Yes/No) for peptides marked Tested,[1],No
RSAFPSRSL [compound 126],Elispot reactive,[6],No
same,Elispot reactive,"IFNγ ELISpot, only peptides marked Elispot tested = Yes",No
RSVLEEMGL [compound 58],ELISPOT result (positive Yes/No) for peptides marked Tested,[1],No
same,ELISPOT result for peptides marked Tested with ELISPOT (Yes/No),[1],No
RTHPYSPKK [compound 171],ELISPOT result (positive Yes/No) for peptides marked Tested,[1],No
RTLLVTCILY [compound 125],Elispot reactive,[6],No
RTRSAWGDW [compound 141],ELISPOT result (positive Yes/No) for peptides marked Tested,[1],No
RVPAHASTSI,Elispot reactive,[3],yes
RVPAHASTSL [compound 27],Elispot reactive,[4],Yes
same,Elispot reactive,[6],Yes
same,Elispot reactive,[5],Yes
RWMVLRNSWRAVARM,Elispot reactive,[3],yes
SELLNPVTMNK [compound 205],Elispot reactive,"IFNγ ELISpot, peptide tested",No
SINVLCVRASLIEKL,Elispot reactive,[2],yes
SLINLTWTA,Elispot reactive,[3],yes
SLINLTWTA [compound 66],ELISPOT result for peptides marked Tested with ELISPOT (Yes/No),[1],No
SLVRLSSCVPV [compound 4],Elispot reactive,"IFNγ ELISpot, peptide tested",No
SLWSSMPHGV [compound 23],Elispot reactive,[4],Yes
same,Elispot reactive,[5],Yes
SMAASPSPK [compound 179],ELISPOT result (positive Yes/No) for peptides marked Tested,[1],No
SMMPPPPAL [compound 2],Elispot reactive,"IFNγ ELISpot, peptide tested",No
SPAIPPRPL,Elispot reactive,[3],yes
SPAIPPRPL [compound 7],Elispot reactive,"IFNγ ELISpot, peptide tested",No
SPMITRIL [compound 210],Elispot reactive,"IFNγ ELISpot, peptide tested",No
SPPLHLCQPL [compound 95],ELISPOT result (positive Yes/No) for peptides marked Tested,[1],No
same,ELISPOT result for peptides marked Tested with ELISPOT (Yes/No),[1],No
SPSRSTTAPV [compound 134],ELISPOT result (positive Yes/No) for peptides marked Tested,[1],No
SQKNITPAI [compound 122],Elispot reactive,[6],No
SQNWGSLPL [compound 164],ELISPOT result (positive Yes/No) for peptides marked Tested,[1],No
SQVWTAATLR [compound 115],Elispot reactive,[6],No
SWMGGLHSFY [compound 121],Elispot reactive,[6],No
TAPVASASPKL [compound 17],Elispot reactive,"IFNγ ELISpot, peptide tested",No
TPMHSLLIS [compound 212],Elispot reactive,"IFNγ ELISpot, peptide tested",No
TPMHSLLISPM [compound 211],Elispot reactive,"IFNγ ELISpot, peptide tested",No
TPQDSRQVL [compound 117],Elispot reactive,[6],No
TPRKLVGRAV [compound 162],ELISPOT result (positive Yes/No) for peptides marked Tested,[1],No
TQLARFFPI,Elispot reactive,[3],yes
TQLARFFPI [compound 24],"experimental validation of the neoAg, Yes/NA",,Yes
same,Elispot reactive,[4],Yes
same,Elispot reactive,[6],Yes
same,Elispot reactive,[5],Yes
TSSPRTMSW [compound 120],Elispot reactive,[6],No
VGMRETTGL [compound 119],Elispot reactive,[6],No
VLEDTLLKI,Elispot reactive,[3],yes
VLEDTLLKI [compound 158],ELISPOT result (positive Yes/No) for peptides marked Tested,[1],Yes
same,Elispot reactive,[5],Yes
VMANVLTLNL,Elispot reactive,[3],yes
VMANVLTLNL [compound 157],ELISPOT result (positive Yes/No) for peptides marked Tested,[1],Yes
same,Elispot reactive,[5],Yes
VPACSHVPM [compound 202],Elispot reactive,"IFNγ ELISpot, peptide tested",No
VPTWSARLL [compound 203],Elispot reactive,"IFNγ ELISpot, peptide tested",No
VSNIAQAPLY [compound 172],ELISPOT result (positive Yes/No) for peptides marked Tested,[1],No
VVHKKRGLF [compound 127],Elispot reactive,[6],No
WLPKMPPFV,Elispot reactive,[3],yes
WLPKMPPFV [compound 163],ELISPOT result (positive Yes/No) for peptides marked Tested,[1],Yes
same,Elispot reactive,[5],Yes
WSWCGTSQTY [compound 136],ELISPOT result (positive Yes/No) for peptides marked Tested,[1],Yes
same,Elispot reactive,[5],Yes
YLFAKAYLV [compound 201],Elispot reactive,"IFNγ ELISpot, peptide tested",No
YLGTPTWNC,Elispot reactive,[3],yes
YLGTPTWNC [compound 151],ELISPOT result (positive Yes/No) for peptides marked Tested,[1],Yes
same,Elispot reactive,[5],Yes
YMMDDLELI [compound 1],Elispot reactive,[4],No
YVAIRPLPY [compound 173],ELISPOT result (positive Yes/No) for peptides marked Tested,[1],No

# Reference: patent US20240218019A1, “METHODS AND COMPOSITIONS COMPRISING MHC CLASS I PEPTIDES” (BOARD OF REGENTS, THE UNIVERSITY OF TEXAS SYSTEM, priority 2021, published 2024)
